Data taken from patent publication US7928119B2, “Use of EP4 receptor ligands in the treatment of IL-6 involved diseases” (Pfizer Inc., priority 2002, dated 2011).

| Structure (SMILES) | melting point |
| --- | --- |
| CCc1nc2c(C)cc(C)nc2n1-c1ccc(CCNC(=O)NS(=O)(=O)c2ccncc2)cc1 [Example 274, 2-ETHYL-3-(4-{2-[({[4-PYRIDINYLSULFONYL]AMINO}CARBONYL)AMINO]ETHYL}PHENYL)-5,7-DIMETHYL-3H-IMIDAZO[4,5-b]PYRIDINE] | 227.9 to 228.7 °C |
| CCc1nc2c(C)cc(C)nc2n1-c1ccc(CCNC(=O)NS(=O)(=O)c2cc3ccccc3s2)cc1 | 128 to 130 °C |
| CCc1nc2cc(C(F)(F)F)c(Cl)cc2n1-c1ccc(CCOC(=O)NS(=O)(=O)c2cccc3c(N(C)C)cccc23)cc1 | 203.4 °C |
| CCc1nc2c(C)c(NS(C)(=O)=O)cnc2n1-c1ccc(CCNC(=O)NS(=O)(=O)c2ccc(C)cc2)cc1 | 166 °C |
| CCc1nc2cc(Cl)c(Cl)nc2n1-c1ccc(CCNC(=O)NS(=O)(=O)c2ccc(C)cc2)cc1 | 188 to 189 °C |
| CCc1nc2c(C#N)cccc2n1-c1ccc(CCNC(=O)NS(=O)(=O)c2ccc(C)cc2)cc1 [Example 321, 4-CYANO-2-ETHYL-1-(4-{2-[({[(4-METHYLPHENYL)SULFONYL]AMINO}CARBONYL)AMINO]ETHYL}PHENYL)-1H-BENZIMIDAZOLE] | 95 to 103 °C |
| CCc1nc2cc(C(F)(F)F)c(Cl)cc2n1-c1ccc(CCOC(=O)NS(=O)(=O)c2cn(C)c(C)n2)cc1 [Example 294, 2-{4-[6-CHLORO-2-ETHYL-5-(TRIFLUOROMETHYL)-1H-BENZIMIDAZOL-1-YL]PHENYL}ETHYL-(1,2-DIMETHYL-1H-IMIDAZOL-4-YL)SULFONYLCARBAMATE] | 221.2 °C |
| CCc1nc2cc(C)c(Cl)nc2n1-c1ccc(CCNC(=O)NS(=O)(=O)c2ccc(C)cc2)cc1 [Example 38, 5-CHLORO-2-ETHYL-6-METHYL-3-(4-{2-[({[(4-METHYLPHENYL)SULFONYL]AMINO}CARBONYL)AMINO]ETHYL}PHENYL)-3H-IMIDAZO[4,5-b]PYRIDINE] | 205 to 206 °C |
| CCc1nc2cc(C(F)(F)F)c(Cl)cc2n1-c1ccc(CCOC(=O)NS(=O)(=O)c2cn(C)cn2)cc1 [Example 292, 2-{4-[6-CHLORO-2-ETHYL-5-(TRIFLUOROMETHYL)-1H-BENZIMIDAZOL-1-YL]PHENYL}ETHYL-(1-METHYL-1H-IMIDAZOL-4-YL)SULFONYLCARBAMATE] | 204.3 °C |
| CCc1nc2c(Cl)nc(C)cc2n1-c1ccc(CCNC(=O)NS(=O)(=O)c2ccc(C)cc2)cc1 | 163 °C |
| CCc1nc2c(C)c(C#N)c(C)nc2n1-c1ccc(CCNC(=O)NS(=O)(=O)c2ccc(C)cc2)cc1 [Example 41, 6-CYANO-2-ETHYL-5,7-DIMETHYL-3-(4-{2-[({[(4-METHYLPHENYL)SULFONYL]AMINO}CARBONYL)AMINO]ETHYL}PHENYL)-3H-IMIDAZO[4,5-b]PYRIDINE] | 133 °C |
| CCc1nc2c(C(N)=O)cccc2n1-c1ccc(CCNC(=O)NS(=O)(=O)c2ccc(C)cc2)cc1 | 208 to 214 °C |
| CCc1nc2c(C)c(C#N)c(C)cc2n1-c1ccc(CCNC(=O)NS(=O)(=O)c2ccc(C)cc2)cc1 | 140 to 145 °C |

The remaining lines, values ahead:

| melting point | Structure (SMILES) |
| --- | --- |
| 200.2 °C | CCc1nc2cc(C(F)(F)F)c(Cl)cc2n1-c1ccc(CCN(C(=O)O)S(=O)(=O)c2ccc(C)cn2)cc1.Cl.Cl |
| 225 °C | CC(=O)c1nc2cc(C(F)(F)F)c(Cl)cc2n1-c1ccc(CCNC(=O)NS(=O)(=O)c2ccc(C)cc2)cc1 [Example 368, N-{[(2-{4-[2-ACETYL-6-CHLORO-5-(TRIFLUOROMETHYL)-1H-BENZIMIDAZOL-1-YL]PHENYL}ETHYL)AMINO]CARBONYL}-4-METHYLBENZENESULFONAMIDE] |
| 108 to 114 °C | CCc1nc2cc(N(C)C)c(Cl)cc2n1-c1ccc(CCNC(=O)NS(=O)(=O)c2ccc(C)cc2)cc1 |
| 101 to 123 °C | CCc1nc2cc(NS(C)(=O)=O)c(Cl)cc2n1-c1ccc(CCNC(=O)NS(=O)(=O)c2ccc(C)cc2)cc1 |
| 138 to 141 °C | CCc1nc2cc(C(F)(F)F)c(Cl)cc2n1-c1ccc(C[C@@H](C)NC(=O)NS(=O)(=O)c2ccc(C)cc2)cc1 [Example 255, N-{[((1R)-2-{4-[6-CHLORO-2-ETHYL-5-(TRIFLUOROMETHYL)-1H-BENZIMIDAZOL-1-YL]PHENYL}-1-METHYLETHYL)AMINO]CARBONYL}-4-METHYLBENZENESULFONAMIDE] |
| 122 to 135 °C | CCc1nc2cc(C(=O)NC)c(Cl)cc2n1-c1ccc(CCNC(=O)NS(=O)(=O)c2ccc(C)cc2)cc1 [Example 333, 6-CHLORO-2-ETHYL-N-METHYL-1-(4-{2-[({[(4-METHYLPHENYL)SULFONYL]AMINO}CARBONYL)AMINO]ETHYL}PHENYL)-1H-BENZIMIDAZOLE-5-CARBOXAMIDE] |
| 128 °C | CCc1nc2c(C)cc(C)nc2n1-c1ccc(CC(C)NC(=O)NS(=O)(=O)c2ccc(C)cc2)cc1 (stereo not shown) |
| 220 °C | Cc1ccc(S(=O)(=O)NC(=O)NCCc2ccc(-n3c(C(C)O)nc4cc(C(F)(F)F)c(Cl)cc43)cc2)cc1 (stereo not shown) [Example 367, N-{[(2-{4-[6-CHLORO-2-(1-HYDROXYETHYL)-5-(TRIFLUOROMETHYL)-1H-BENZIMIDAZOL-1-YL]PHENYL}ETHYL)AMINO]CARBONYL}-4-METHYLBENZENESULFONAMIDE] |
| 105 to 118 °C | CCc1nc2cc(S(C)(=O)=O)c(Cl)cc2n1-c1ccc(CCNC(=O)NS(=O)(=O)c2ccc(C)cc2)cc1 |
| 95 to 100 °C | CCc1nc2cc(NC)c(Cl)cc2n1-c1ccc(CCNC(=O)NS(=O)(=O)c2ccc(C)cc2)cc1 |
| 125 to 133 °C | CCc1nc2cc(NC(C)=O)c(Cl)cc2n1-c1ccc(CCNC(=O)NS(=O)(=O)c2ccc(C)cc2)cc1 |
| 141 to 143 °C | CCc1nc2cc(C(F)(F)F)c(Cl)cc2n1-c1ccc(C[C@H](C)NC(=O)NS(=O)(=O)c2ccc(C)cc2)cc1 [Example 254, N-{[((1S)-2-{4-[6-CHLORO-2-ETHYL-5-(TRIFLUOROMETHYL)-1H-BENZIMIDAZOL-1-YL]PHENYL}-1-METHYLETHYL)AMINO]CARBONYL}-4-METHYLBENZENESULFONAMIDE] |
| 134.6 °C | CCc1nc2cc(COC)c(Cl)cc2n1-c1ccc(CCNC(=O)NS(=O)(=O)c2ccc(C)cc2)cc1 [Example 338, N-({[2-(4-{6-CHLORO-2-ETHYL-5-[(METHYLOXY)METHYL]-1H-BENZIMIDAZOL-1-YL}PHENYL)ETHYL]AMINO}CARBONYL)-4-METHYLBENZENSULFONAMIDE] |
| 145 to 150 °C | CCc1nc2cc(C(=O)O)c(Cl)cc2n1-c1ccc(CCNC(=O)NS(=O)(=O)c2ccc(C)cc2)cc1 [Example 112, 6-CHLORO-2-ETHYL-1-(4-{2-[({[(4-METHYLPHENYL)SULFONYL]AMINO}CARBONYL)AMINO]ETHYL}PHENYL)-1H-BENZIMIDAZOLE-5-CARBOXYLIC ACID] |
| 127 to 130 °C | CCc1nc2cc(C(F)(F)F)c(Cl)cc2n1-c1ccc(CCOC(=O)NS(=O)(=O)c2ccccn2)cc1 |
| 190 °C | CCc1nc2cc(C(C)O)ccc2n1-c1ccc(CCNC(=O)NS(=O)(=O)c2ccc(C)cc2)cc1 (stereo not shown) [Example 345, N-{[(2-{4-[2-ETHYL-5-(1-HYDROXYETHYL)-1H -BENZIMIDAZOL-1-YL]PHENYL}ETHYL)AMINO]CARBONYL}-4-METHYLBENZENESULFONAMIDE] |
| 152 to 163 °C | CCc1nc2cc(C(N)=O)c(Cl)cc2n1-c1ccc(CCNC(=O)NS(=O)(=O)c2ccc(C)cc2)cc1 |
| 163 to 170 °C | CCc1nc2cc(S(N)(=O)=O)c(Cl)cc2n1-c1ccc(CCNC(=O)NS(=O)(=O)c2ccc(C)cc2)cc1 |
